Data on 13 molecules can be found in patent US12624050B2, “Three fused ring derivative-containing salt or crystal form and pharmaceutical composition thereof” (Shanghai Hansoh Biomedical Co., Ltd., priority 2019, dated 2026).

Experiment [1] addresses T1, PI3Kβ (Homo sapiens, UniProt P42338).
T1 construct: purchased Carna #11-102
The experiment is described as follows: ADP-Glo Lipid Kinase Assay, PI3Kβ kinase activity. The conditions noted are these: ratio of IC50 values. In kind it is biochemical. On the procedure: (§1) In this experiment, ADP-Glo Lipid Kinase Assay (Promega #V9102) from Promega was used. The lipid kinases PI3Kα/β/γ/δ catalyzed the ATP-to-ADP reaction in the presence of the substrate PIP2:3PS and ATP. The lipid kinase activity was characterized by measuring the ADP content in the reaction, and the half inhibition concentrations IC50 of the compounds on PI3Kα/β/γ/δ kinase activity were obtained.
(§2) Kinase reactions were carried out in white 384-well plates (Perkin Elmer #6007299). 2 μL of the compound of various concentrations diluted with ddH2O containing 1% DMSO was added to each well, and 2 μL of ddH2O containing 1% DMSO was added to positive control wells. Then 2 μL of 0.1 to 2 nM PI3K kinase solution diluted with 5× kinase buffer (HEPES 250 mM, MgCl2 15 mM, NaCl 250 mM, BSA 0.05%) was added to each well, and 2 μL of 5× kinase buffer was added to the negative control wells. 4 μL of 50 μM substrate PIP2:3PS (Promega #V1701) prepared with 10× Dilution buffer and ddH2O was added to all wells. Finally, 2 μL of 50 to 100 μM ATP solution diluted with water was added to start the reaction. After the reaction was carried out at room temperature for 90 to 120 minutes, 10 µL of ADP-Glo Reagent (containing 10 mM MgCl2) was added to each well, and the reaction was carried out at room temperature for 60 minutes to eliminate excess adenosine triphosphate (ATP) in the reaction. Then 20 μL of Kinase Detection Reagent was added to each well. After the reaction was carried out for 20 minutes at room temperature in the dark, the chemiluminescence was measured by BioTek Synergy H1 microplate reader.
(§3) The percentage inhibition data of the compound-treated well was calculated from positive control wells (DMSO control wells) and negative control wells (no kinase added) on the plate {% inhibition=100−[(test compound value−negative control value)]/(positive control value-negative control value)×100}. IC50 values were calculated using GraphPad prism and using a four-parameter nonlinear logistic formula to fit the data of different concentrations and corresponding percent inhibition.

In experiment [2] the target is T2, PI3Kγ (Homo sapiens, UniProt P48736).
T2 construct: purchased Thermofisher #PV4786
T2 sequence (P48736 whole entry): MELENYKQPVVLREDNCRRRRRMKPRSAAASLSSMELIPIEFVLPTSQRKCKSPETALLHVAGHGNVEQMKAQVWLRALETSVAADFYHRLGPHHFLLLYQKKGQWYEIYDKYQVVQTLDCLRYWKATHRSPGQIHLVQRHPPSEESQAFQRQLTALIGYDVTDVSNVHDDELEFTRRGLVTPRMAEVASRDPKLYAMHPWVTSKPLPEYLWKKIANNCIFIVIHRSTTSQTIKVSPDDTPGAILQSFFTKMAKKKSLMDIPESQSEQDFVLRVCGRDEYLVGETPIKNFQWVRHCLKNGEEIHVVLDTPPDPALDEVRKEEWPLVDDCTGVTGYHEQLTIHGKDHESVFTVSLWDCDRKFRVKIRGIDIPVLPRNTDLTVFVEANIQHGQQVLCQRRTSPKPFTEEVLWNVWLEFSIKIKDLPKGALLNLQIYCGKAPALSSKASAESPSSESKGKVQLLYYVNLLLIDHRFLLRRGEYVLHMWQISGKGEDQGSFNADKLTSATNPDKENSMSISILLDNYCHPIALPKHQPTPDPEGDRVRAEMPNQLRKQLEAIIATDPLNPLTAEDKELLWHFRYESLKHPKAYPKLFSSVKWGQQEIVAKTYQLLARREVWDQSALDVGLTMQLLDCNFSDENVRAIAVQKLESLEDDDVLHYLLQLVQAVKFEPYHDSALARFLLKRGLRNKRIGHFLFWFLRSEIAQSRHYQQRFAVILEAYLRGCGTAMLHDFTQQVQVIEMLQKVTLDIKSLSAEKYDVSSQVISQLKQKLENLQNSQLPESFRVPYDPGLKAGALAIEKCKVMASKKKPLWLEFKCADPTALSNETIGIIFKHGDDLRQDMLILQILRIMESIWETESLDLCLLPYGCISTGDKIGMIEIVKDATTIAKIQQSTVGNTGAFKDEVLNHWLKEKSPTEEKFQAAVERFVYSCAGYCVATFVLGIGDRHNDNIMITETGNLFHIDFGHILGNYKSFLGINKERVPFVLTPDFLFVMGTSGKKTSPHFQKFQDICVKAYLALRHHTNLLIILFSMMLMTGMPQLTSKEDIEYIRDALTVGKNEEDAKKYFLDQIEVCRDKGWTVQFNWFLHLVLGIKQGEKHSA
The experiment is described as follows: ADP-Glo Lipid Kinase Assay, PI3Kγ kinase activity. In kind it is biochemical. The conditions noted are these: ratio of IC50 values. On the procedure:
as §1, §2, §3

The target of experiment [3] is T3, PI3Kδ (Homo sapiens, UniProt O00329).
T3 construct: purchased Carna #11-103
T3 sequence (O00329 whole entry): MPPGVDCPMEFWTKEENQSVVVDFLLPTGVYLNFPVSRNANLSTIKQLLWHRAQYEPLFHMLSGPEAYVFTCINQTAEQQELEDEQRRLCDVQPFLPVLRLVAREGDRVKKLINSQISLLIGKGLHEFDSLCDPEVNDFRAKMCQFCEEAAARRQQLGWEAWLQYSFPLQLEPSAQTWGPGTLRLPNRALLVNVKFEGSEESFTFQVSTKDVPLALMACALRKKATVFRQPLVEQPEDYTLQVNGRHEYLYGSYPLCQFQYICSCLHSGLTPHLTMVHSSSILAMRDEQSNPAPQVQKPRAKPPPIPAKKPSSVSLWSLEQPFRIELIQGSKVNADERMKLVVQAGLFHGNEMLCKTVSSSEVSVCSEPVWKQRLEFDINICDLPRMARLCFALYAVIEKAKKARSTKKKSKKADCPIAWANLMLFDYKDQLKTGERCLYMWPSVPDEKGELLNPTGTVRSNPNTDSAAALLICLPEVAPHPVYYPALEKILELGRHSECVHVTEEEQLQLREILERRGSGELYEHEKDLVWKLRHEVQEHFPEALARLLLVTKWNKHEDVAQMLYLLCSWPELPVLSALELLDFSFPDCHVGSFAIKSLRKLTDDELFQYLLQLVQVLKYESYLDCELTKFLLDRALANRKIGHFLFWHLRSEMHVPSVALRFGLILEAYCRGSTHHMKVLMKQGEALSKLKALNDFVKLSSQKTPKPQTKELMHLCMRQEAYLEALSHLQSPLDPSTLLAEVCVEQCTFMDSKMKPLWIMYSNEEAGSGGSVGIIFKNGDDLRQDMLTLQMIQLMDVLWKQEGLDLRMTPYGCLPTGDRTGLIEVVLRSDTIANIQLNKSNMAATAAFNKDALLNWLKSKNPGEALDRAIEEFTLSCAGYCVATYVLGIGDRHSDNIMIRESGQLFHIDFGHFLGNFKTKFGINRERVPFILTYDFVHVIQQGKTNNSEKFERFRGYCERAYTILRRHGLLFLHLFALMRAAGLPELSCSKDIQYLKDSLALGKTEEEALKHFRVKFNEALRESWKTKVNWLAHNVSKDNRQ
T3 sequence (P27986 whole entry partner): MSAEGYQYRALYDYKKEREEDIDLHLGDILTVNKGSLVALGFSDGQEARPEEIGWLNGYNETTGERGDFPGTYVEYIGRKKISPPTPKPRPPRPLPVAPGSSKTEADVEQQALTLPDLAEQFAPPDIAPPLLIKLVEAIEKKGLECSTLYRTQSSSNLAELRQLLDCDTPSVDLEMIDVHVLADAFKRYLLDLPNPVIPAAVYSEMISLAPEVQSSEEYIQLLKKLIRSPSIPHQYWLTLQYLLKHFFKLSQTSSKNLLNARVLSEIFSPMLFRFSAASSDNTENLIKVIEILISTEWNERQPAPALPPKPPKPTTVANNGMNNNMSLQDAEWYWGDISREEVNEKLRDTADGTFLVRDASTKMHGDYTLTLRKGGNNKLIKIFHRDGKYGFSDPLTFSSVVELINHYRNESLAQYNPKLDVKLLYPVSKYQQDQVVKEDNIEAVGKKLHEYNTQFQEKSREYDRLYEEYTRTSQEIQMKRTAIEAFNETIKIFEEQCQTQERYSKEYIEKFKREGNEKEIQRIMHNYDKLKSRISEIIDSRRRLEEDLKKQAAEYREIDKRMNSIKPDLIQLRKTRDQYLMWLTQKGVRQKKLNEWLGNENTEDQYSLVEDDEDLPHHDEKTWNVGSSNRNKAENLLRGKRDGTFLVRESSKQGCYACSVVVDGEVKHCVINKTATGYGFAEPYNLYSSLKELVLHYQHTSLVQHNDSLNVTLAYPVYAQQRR
Kind of experiment: ADP-Glo Lipid Kinase Assay, PI3Kδ kinase activity. In kind it is biochemical. As to conditions: ratio of IC50 values. On the procedure:
as §1, §2, §3
On the technique in general: ADP-Glo first removes unused ATP, then detects ADP through luciferase.

Experiment [4] has as its system HCC1954 (H1047R). The experiment is described as follows: Proliferation inhibition of PI3Kα mutant cancer cells, Cell Titer-Glo, HCC1954. In kind it is cell-based. As to conditions: Homo sapiens. On the procedure:
(§4) The proliferation inhibitory effect of the compounds of the examples on the PI3Kα mutant cancer cell lines (HCC1954, HGC-27 and MKN1) was detected by Cell Titer-Glo method. Cell lines were cultured in RPMI 1640 medium (Gibco #22400089) containing 10% FBS (Gibco #10091148) and 1% P/S (Hyclone #SV30010) under the condition of 37° C. and 5% CO2. The cells were collected before the experiment, and the cell density was adjusted after cell counting. The cells were seeded in a white 96-well plate (Corning #3610) at a density of 1000 to 10000 cells/well, and incubated in an incubator at 37° C. and 5% CO2 overnight. The prepared compound solutions of different concentrations and the corresponding solvent controls were added to the plate. The plate was again incubated in an incubator at 37° C. and 5% CO2 for 48 to 96 hours. Then the cell plate and its contents were equilibrated to room temperature. 20 to 100 μL of Cell Titer-Glo solution (Promega #G7573) was added to each well, and the plate was shaken and mixed well, then incubated at room temperature for 5 to 30 minutes in the dark. The chemiluminescence was measured by a SynergyH1 microplate reader from BioTek.
(§5) The percentage inhibition data of the compound-treated well was calculated from solvent control wells on the plate {% inhibition=100−([…])×100}. IC50 values were calculated using GraphPad prism and using a four-parameter nonlinear logistic formula to fit the data of different concentrations and corresponding percent inhibition.
(In general: In ATP-based viability assays light output follows the ATP content of the culture.)

The test system of experiment [5] is MKN1 (E545K). The experiment is described as follows: Proliferation inhibition of PI3Kα mutant cancer cells, Cell Titer-Glo, MKN1. In kind it is cell-based. As to conditions: Homo sapiens, MKN-1. On the procedure:
as §4, §5

Experiment [6] relates to HGC-27 (E542K). Kind of experiment: Proliferation inhibition of PI3Kα mutant cancer cells, Cell Titer-Glo, HGC-27. The experiment is classed as cell-based. The conditions noted are these: Homo sapiens. As to the method:
as §4, §5

Bounds are passed on as bounds.

By IC50 is commonly meant the concentration that gives 50% inhibition.

T1 sequence (P42338 whole entry): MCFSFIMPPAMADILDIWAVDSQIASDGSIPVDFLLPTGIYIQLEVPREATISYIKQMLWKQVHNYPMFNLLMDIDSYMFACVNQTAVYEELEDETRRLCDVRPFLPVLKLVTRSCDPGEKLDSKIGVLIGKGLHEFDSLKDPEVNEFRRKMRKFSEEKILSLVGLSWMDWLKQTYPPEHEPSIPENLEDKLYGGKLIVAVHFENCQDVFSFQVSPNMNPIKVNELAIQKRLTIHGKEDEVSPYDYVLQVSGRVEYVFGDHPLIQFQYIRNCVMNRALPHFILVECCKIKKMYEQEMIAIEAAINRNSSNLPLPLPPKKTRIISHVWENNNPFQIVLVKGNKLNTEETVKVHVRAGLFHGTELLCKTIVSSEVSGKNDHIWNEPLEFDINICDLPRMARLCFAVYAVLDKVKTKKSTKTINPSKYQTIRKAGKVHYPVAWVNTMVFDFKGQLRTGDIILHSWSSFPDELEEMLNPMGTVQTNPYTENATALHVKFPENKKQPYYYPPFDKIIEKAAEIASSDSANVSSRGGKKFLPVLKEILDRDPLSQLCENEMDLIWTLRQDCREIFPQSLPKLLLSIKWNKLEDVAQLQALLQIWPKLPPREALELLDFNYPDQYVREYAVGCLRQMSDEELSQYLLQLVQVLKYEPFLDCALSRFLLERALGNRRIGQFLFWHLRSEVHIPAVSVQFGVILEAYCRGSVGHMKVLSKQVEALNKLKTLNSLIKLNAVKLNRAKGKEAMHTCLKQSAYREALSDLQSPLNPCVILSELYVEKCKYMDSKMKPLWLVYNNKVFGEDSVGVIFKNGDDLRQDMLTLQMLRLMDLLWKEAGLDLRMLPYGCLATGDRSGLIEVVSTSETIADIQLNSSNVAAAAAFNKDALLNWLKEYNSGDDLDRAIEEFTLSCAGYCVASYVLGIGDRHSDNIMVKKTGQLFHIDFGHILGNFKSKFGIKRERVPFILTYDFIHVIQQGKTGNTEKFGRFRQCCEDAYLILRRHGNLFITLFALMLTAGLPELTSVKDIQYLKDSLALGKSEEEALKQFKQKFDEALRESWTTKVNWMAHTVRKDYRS
T1 sequence (P27986 whole entry partner): as the sequence (P27986 whole entry partner) above

Take `CC(Nc1ccc2c(c1)OCCn1cc(N3C(=O)OC(C)[C@H]3C(F)F)nc1-2)C(N)=O` (stereo in doubt) [Example 26, (R)-2-((2-((4S,5R)-4-(difluoromethyl)-5-methyl-2-oxooxazolidin-3-yl)-5,6-dihydrobenzo[f]imidazo[1,2-d][1,4]oxazepin-9-yl)amino)propionamide]: the “Selectivity of PI3Kα vs PI3Kβ” value in experiment [1] is listed as 1101. Besides, the “Selectivity of PI3Kα vs PI3Kγ” value in experiment [2] is 214. Further, in experiment [3], the “Selectivity of PI3Kα vs PI3Kδ” value came out at 125. In addition, the IC50 was 160 nM in experiment [4], 508 nM in experiment [5] and 325 nM in experiment [6].
With `C[C@H](Nc1ccc2c(c1)OCCn1c-2nc(N2C(=O)OC[C@H]2C(F)F)c1F)C(N)=O` [Example 1, (S)-2-((2-((S)-4-(difluoromethyl)-2-oxooxazolidin-3-yl)-3-fluoro-5,6-dihydrobenzo[f]imidazo[1,2-d][1,4]oxazepin-9-yl)amino)propionamide], in experiment [1], the “Selectivity of PI3Kα vs PI3Kβ” value was above 1266. Also, the “Selectivity of PI3Kα vs PI3Kγ” value in experiment [2] turned out to be 226. Also, the “Selectivity of PI3Kα vs PI3Kδ” value in experiment [3] is 177.
For the molecule `CC(C)[C@H](Nc1ccc2c(c1)OCCn1cc(N3C(=O)OC[C@H]3C(F)F)nc1-2)C(N)=O` [Example 14, (S)-2-((2-((S)-4-(difluoromethyl)-2-oxooxazolidin-3-yl)-5,6-dihydrobenzo[f]imidazo[1,2-d][1,4]oxazepin-9-yl)amino)-3-methylbutanamide], the “Selectivity of PI3Kα vs PI3Kβ” value in experiment [1] was determined as 358. The “Selectivity of PI3Kα vs PI3Kγ” value in experiment [2] worked out at 112. In addition, the “Selectivity of PI3Kα vs PI3Kδ” value in experiment [3] is reported as 103. Besides, the IC50 in experiment [4] stood at 204 nM; in experiment [5] it was 615 nM; in experiment [6], 417 nM.
With `C[C@@H](C(N)=O)N(C)c1ccc2c(c1)OCCn1cc(N3C(=O)OC[C@H]3C(F)F)nc1-2` [Example 19, (S)-2-((2-((S)-4-(difluoromethyl)-2-oxooxazolidin-3-yl)-5,6-dihydrobenzo[f]imidazo[1,2-d][1,4]oxazepin-9-yl)(methyl)amino)propionamide], the “Selectivity of PI3Kα vs PI3Kβ” value in experiment [1] came to 329. In addition, in experiment [2], the “Selectivity of PI3Kα vs PI3Kγ” value was 648. Besides, the “Selectivity of PI3Kα vs PI3Kδ” value in experiment [3] is reported as 29. Moreover, the IC50 in experiment [4] is 112 nM; in experiment [5], 214 nM; in experiment [6], 169 nM.
With `NC(=O)[C@@H]1CCN1c1ccc2c(c1)OCCn1cc(N3C(=O)OC[C@H]3C(F)F)nc1-2` [Example 21, (S)-1-(2-((S)-4-(difluoromethyl)-2-oxooxazolidin-3-yl)-5,6-dihydrobenzo[f]imidazo[1,2-d][1,4]oxazepin-9-yl)azetidine-2-carboxamide], the IC50 came to 205 nM in experiment [4], 399 nM in experiment [5] and 396 nM in experiment [6].
`C[C@H](Nc1ccc2c(c1)OCCn1cc(N3C(=O)N(C)C[C@H]3C(F)F)nc1-2)C(N)=O` [Example 24, (S)-2-((2-((S)-5-(difluoromethyl)-3-methyl-2-oxoimidazolidin-1-yl)-5,6-dihydrobenzo[f]imidazo[1,2-d][1,4]oxazepin-9-yl)amino)propionamide]: in experiment [1], the “Selectivity of PI3Kα vs PI3Kβ” value amounted to 1238. The “Selectivity of PI3Kα vs PI3Kγ” value in experiment [2] is 80. Moreover, in experiment [3], the “Selectivity of PI3Kα vs PI3Kδ” value was 75.
For the molecule `C[C@H](Nc1ccc2c(c1F)OCCn1cc(N3C(=O)OC[C@H]3C(F)F)nc1-2)C(N)=O` [Example 31, (S)-2-((2-((S)-4-(difluoromethyl)-2-oxooxazolidin-3-yl)-8-fluoro-5,6-dihydrobenzo[f]imidazo[1,2-d][1,4]oxazepin-9-yl)amino)propionamide], the “Selectivity of PI3Kα vs PI3Kβ” value in experiment [1] is 178. In addition, in experiment [2], the “Selectivity of PI3Kα vs PI3Kγ” value was 87. The “Selectivity of PI3Kα vs PI3Kδ” value in experiment [3] worked out at 59. Also, the IC50 in experiment [4] is 226 nM; in experiment [5], 653 nM; in experiment [6] it was 499 nM.
For the molecule `C[C@H](Nc1cc(F)c2c(c1)OCCn1cc(N3C(=O)OC[C@H]3C(F)F)nc1-2)C(N)=O` [Example 32, (S)-2-((2-((S)-4-(difluoromethyl)-2-oxooxazolidin-3-yl)-11-fluoro-5,6-dihydrobenzo[f]imidazo[1,2-d][1,4]oxazepin-9-yl)amino)propionamide], the “Selectivity of PI3Kα vs PI3Kβ” value in experiment [1] was 536. Further, the “Selectivity of PI3Kα vs PI3Kγ” value in experiment [2] is 98. Moreover, the “Selectivity of PI3Kα vs PI3Kδ” value in experiment [3] stood at 88.
For the molecule `COC[C@H](Nc1ccc2c(c1)OCCn1cc(N3C(=O)OC[C@H]3C(F)F)nc1-2)C(N)=O` [Example 43, (S)-2-((2-((S)-4-(difluoromethyl)-2-oxooxazolidin-3-yl)-5,6-dihydrobenzo[f]imidazo[1,2-d][1,4]oxazepin-9-yl)amino)-3-methoxypropionamide], the IC50 in experiment [4] is 222 nM; in experiment [5], 368 nM; in experiment [6] it was 531 nM.
As for `C[C@H](Nc1ccc2c(c1)OCCn1cc(N3C(=O)CC[C@H]3C(F)F)nc1-2)C(N)=O` [Example 46, (S)-2-((2-((S)-2-(difluoromethyl)-5-oxopyrrolidin-1-yl)-5,6-dihydrobenzo[f]imidazo[1,2-d][1,4]oxazepin-9-yl)amino)propionamide], the “Selectivity of PI3Kα vs PI3Kβ” value in experiment [1] stood at 785. Moreover, in experiment [2], the “Selectivity of PI3Kα vs PI3Kγ” value is 243. In addition, the “Selectivity of PI3Kα vs PI3Kδ” value in experiment [3] came to 90. For the same molecule, the IC50 in experiment [4] was determined as 184 nM; in experiment [5], 268 nM; in experiment [6] it was 186 nM.
As to `COC[C@H](Nc1ccc2c(c1F)OCCn1cc(N3C(=O)SC[C@H]3C(F)F)nc1-2)C(N)=O` [Example 51, (S)-2-((2-((R)-4(difluoromethyl)-2-oxothiazolidin-3-yl)-8-fluoro-5,6-dihydrobenzo[f]imidazo[1,2-d][1,4]oxazepin-9-yl)amino)-3-methoxypropionamide], the “Selectivity of PI3Kα vs PI3Kβ” value in experiment [1] came to 157. Besides, the “Selectivity of PI3Kα vs PI3Kγ” value in experiment [2] is reported as 170. For the same molecule, in experiment [3], the “Selectivity of PI3Kα vs PI3Kδ” value was found to be 51. For the same molecule, the IC50 in experiment [4] was 243 nM; in experiment [5] it was 426 nM; in experiment [6] it was 455 nM.
`NC(=O)[C@@H]1CCCN1c1ccc2c(c1)OCCn1cc(N3C(=O)SC[C@H]3C(F)F)nc1-2` [Example 53, (S)-1-(2-((R)-4-(difluoromethyl)-2-oxothiazolidin-3-yl)-5,6-dihydrobenzo[f]imidazo[1,2-d][1,4]oxazepin-9-yl)pyrrolidine-2-carboxamide]: the “Selectivity of PI3Kα vs PI3Kβ” value in experiment [1] is given as 423. Further, the “Selectivity of PI3Kα vs PI3Kγ” value in experiment [2] was determined as 254. Moreover, the “Selectivity of PI3Kα vs PI3Kδ” value in experiment [3] came out at 43. The IC50 in experiment [4] came to 40 nM; in experiment [5], 66 nM; in experiment [6], 77 nM.
`C[C@@H](C(N)=O)N(C)c1ccc2c(c1)OCCn1cc(N3C(=O)SC[C@H]3C(F)F)nc1-2` [Example 54, (S)-2-((2-((R)-4-(difluoromethyl)-2-oxothiazolidin-3-yl)-5,6-dihydrobenzo[f]imidazo[1,2-d][1,4]oxazepin-9-yl)(methyl)amino)propionamide]: the “Selectivity of PI3Kα vs PI3Kβ” value in experiment [1] worked out at 238. Besides, the “Selectivity of PI3Kα vs PI3Kγ” value in experiment [2] turned out to be 217. Also, in experiment [3], the “Selectivity of PI3Kα vs PI3Kδ” value was 31. Moreover, the IC50 was found to be 29 nM in experiment [4], 42 nM in experiment [5] and 32 nM in experiment [6].
